Source: patent publication US20030207843A1, “Treatment of drug-resistant human immunodeficiency virus infection” (priority 1999, published 2003)
Read-outs that look alike come from different tables or passages of the source.

Tests used:
Type in all cases: cell-based
[1] = test system: HIV-1LAI (wild type, control); assay: p24 reduction assay in MT-2 cells, wild type virus
Description: (§1) Cells. MT-2 cells (AIDS Research and Reference Reagent Program, National Institute of Allergy and Infectious Diseases, National Institutes of Health) were maintained in RPMI 1640 supplemented with 10% fetal bovine serum (FBS; JRH Biosciences, Lenexa, Kans.), 10 mM HEPES buffer, 50 IU/ml penicillin and 50 μg/ml streptomycin.
Viruses. Stock virus was prepared by electroporating (BIO-RAD Gene Pulser®, Hercules, Calif.) MT-2 cells (1.3×10^7 cells) with 5-10 μg of plasmid DNA encoding a proviral clone of HIV-1LAI (see Nguyen, et. al., Antimicrob. Agents Chemother. 38:2409-2414, and Peden, et. al., Virology 185: 661-672.). At peak cytopathic effect (generally 5-7 days post-transfection), culture supernatants were harvested and stored at −80° C. Viral infectivity titers were determined in threefold endpoint dilution assays conducted in MT-2 cells (six wells per dilution). The 50% tissue culture infective dose (TCID50) was calculated using the Reed and Muench equation (see Reed, et. al., Am. J. Hyg. 27:493-496).
Antiviral Susceptibility Assays. The antiviral activity of each compound […], followed by incubation in the presence of three-fold serial drug dilutions (3 wells per dilution) (see Mellors, et. al., Antimicrob. Agents Chemother. 39:1087-1092). Five or seven days after infection, culture supernatants were harvested, lysed with 0.5% triton-X 100 and assayed for p24 antigen concentration using a commercial ELISA assay (DuPont, NEN Products, Wilmington, Del.). The antiviral activity of the compounds is expressed as the IC50, which is the concentration required to inhibit 50% of p24 antigen production. The fold-resistance of a test virus is calculated by dividing the IC50 of the test virus by the IC50 of the HIV-1LAI control virus.
Cultures of MT-2 cells infected with either wild type (xxLAI) or with the drug-resistant strains of HIV-1 listed above were treated with lipid analogs of PFA (B-PFA, MB-PFA, or EB-PFA). The μM concentration required to produce 50% inhibition of replication of the drug-resistant strain of HIV (EC50) was determined as shown in Table 1. Drug effects were measured by assaying p24 (a viral protein) in the culture medium.

[2] = test system: HIV-1LAI W88G; assay: p24 reduction assay in MT-2 cells, W88G; conditions: for EC50: W88G
Description: as §1
(§2) Antiviral Susceptibility Assays. The antiviral activity of each compound was determined by inoculating MT-2 cells with HIV-1LAI at a multiplicity of infection (MOI) of 0.01 TCID50/cell, followed by incubation in the presence of three-fold serial drug dilutions (3 wells per dilution) (see Mellors, et. al., Antimicrob. Agents Chemother. 39:1087-1092). Five or seven days after infection, culture supernatants were harvested, lysed with 0.5% triton-X 100 and assayed for p24 antigen concentration using a commercial ELISA assay (DuPont, NEN Products, Wilmington, Del.). The antiviral activity of the compounds is expressed as the IC50, which is the concentration required to inhibit 50% of p24 antigen production. The fold-resistance of a test virus is calculated by dividing the IC50 of the test virus by the IC50 of the HIV-1LAI control virus.
(§3) Generation of Mutant Recombinant HIV-1. HIV-1 containing the desired mutations were generated by oligonucleotide directed mutagenesis (Altered Sites II, Promega) as previously described (Mellors, et. al., Molecular Pharm. 41:446-451). After mutagenesis, mutant RT was subcloned into the pxxHIV-1LAI cloning vector using the silent XmaI and XbaI restriction sites located at the 5′ and 3′ ends of RT. Clones were DNA sequenced to verify the presence of the desired mutation(s) and electroporated into MT-2 cells as described above to generate infectious mutant recombinant HIV-1.
(§4) Mutant RT was generated via oligonucleotide-directed mutagenesis and ligated into the pXXHIV-1LAI cloning vector. Cloning was facilitated by the presence of two silent restriction sites at the 5′ and 3′ ends (Xma1 and Xba1, respectively) of pXXHIV-1LAI RT. Infectious mutant recombinant HIV-1 was generated by electroporating MT-2 cells with mutated pXXHIV-1LAI clones. The presence of the desired mutations was verified by DNA sequencing.
(§5) Invention compounds were also evaluated against a panel of HIV-1LAI derived recombinants resistant to PFA and the PFA invention compounds, as shown in Table 7.

[3] = test system: HIV-1LAI M184V; assay: p24 reduction assay in MT-2 cells, M184V; conditions: for EC50: M184V; for Fold-resistance: M184V relative to wild type virus
Description: as §1, §2, §3, §4
The multi-drug resistant HIV-1 strains, 11163p1 and 11588p1, are human clinical isolates having the RT mutations indicated. HIV-1 strains treated with the lipid analogs of the present invention include wild type, e.g., xxLAI, and the like, single mutation, e.g., xxLAI MI 84V (resistant to 3TC), xxLAI L74V (resistant to ddI and ddC), xxLAI K65R (resistant to ddI, ddC, DAPD, DXG, tenofovir, and adefovir), xxLAI T215Y (resistant to AZT), and the like, double mutations, e.g., xxLAI M41 L/T215Y (resistant to AZT), xxLAI MI 84V/T215Y (resistant to 3TC and AZT), and the like, and multiple mutations, e.g., xxLAI 4XAZT ((D67N, K70R, T215Y, K219Q) resistant to AZT)), xxLAI 4XAZT/M184V ((D67N, K70R, M 184V, T215Y, K219Q) resistant to AZT and 3TC), xxLAI M5456-12 (AZT+NNRTI resistant: D67N, K70R, K103N, T215Y), xxLAI G2-3g (AZT/3TC co-resistant: M41L, D67N, M184V, H208Y, L210W, R211K, L214F, T215Y, 1293V, E297A), 11163 (multinucleoside resistant virsus: M41L, A62V, V751, F77L, K103N, F116Y, Q151M, Y181C, M184V), 11588 (multinucleoside resistant virsus: A62V, K65R, K70R, V751, F77L, F116Y, Q151M, M184V, K219Q), and the like.

[4] = test system: HIV-1LAI T215Y; assay: p24 reduction assay in MT-2 cells, T215Y; conditions: Table 1, MOI 0.01
Description: as §1, §2, §3
Mutant RT was generated via oligonucleotide-directed mutagenesis and ligated into the pXXHIV-1LAI cloning vector. Cloning was facilitated by the presence of two silent restriction sites at the 5′ and 3′ ends (Xma1 and Xba1, respectively) of pXXHIV-1LAI RT. […]

[5] = test system: HIV-1LAI 4XAZT/Q161L; assay: p24 reduction assay in MT-2 cells, 4XAZT/Q161L; conditions: Table 7; for EC50: 4XAZTQ161L; for Fold-resistance: 4XAZTQ161L relative to wild type virus
Description: as §1, §2, §3, §4, §5

[6] = Table 1, HIV-1LAI(control), MOI 0.01, p24, MT-2 cells, read-out: EC50
[7] = Table 2, HIV-1LAI(control), MOI 0.05, read-out: EC50
[8] = Table 3, Wild type, mean ± SD, at least three experiments, read-out: EC50
[9] = Table 4, HIV-1LAI wild type, mean ± SD, two or three experiments, read-out: EC50
[10] = Table 5, Wild type, mean ± SD, read-out: EC50
[11] = Table 7, W88G relative to wild type virus
[12] = Table 6, baseline virus HIV-1LAI passage 0, read-out: EC50

Compound | EC50 [1, 6] | EC50 [1, 7] | EC50 [1, 8] | EC50 [1, 9] | EC50 [1, 10] | EC50 ([3]; Table 1, MOI 0.01) | Fold-resistance ([3]; Table 3) | EC50 ([3]; Table 3, mean ± SD) | EC50 [4] | Fold-resistance [2, 11] | EC50 ([2]; Table 7, read-out: EC50) | EC50 [5] | Fold-resistance [5] | EC50 [1, 12] | other results
Cc1cn([C@H]2C[C@H](N=[N+]=[N-])[C@@H](CO)O2)c(=O)[nH]c1=O [AZT, 3′-Azido-3′-deoxythymidine] | – | – | – | – | – | – | – | – | – | – | – | – | – | – | EC50 ([1]; Human immunodeficiency virus 1, MT2, Table 8, Wild type, mean ± SD, read-out: AZT EC50): 21 ± 8 nM; EC50 ([2]; Human immunodeficiency virus 1, MT2, Table 8, read-out: AZT EC50): 19 ± 13 nM; Fold resistance ([2]; Table 8, W88G relative to wild type virus): 0.9
CCCCCCCCCCCCCCCCCCOC[C@@H](O)COP(=O)(O)C(=O)O [B-PFA, 1-O-octadecyl-sn-glycero-3-PFA] | 1900 nM | 3010 nM | 1790 ± 810 nM | 1800 ± 810 nM | 1790 ± 810 nM | 2290 nM | (0.7) | 1930 ± 540 nM | 840 nM | (>17.2) | > 30000 nM | 6640 nM | 2.10 (2.5) | – | –
CCCCCCCCCCCCCCCCCCOC[C@H](COP(=O)(O)C(=O)O)OCC [EB-PFA, 1-O-octadecyl-2-O-ethyl-sn-glycero-3-PFA] | 220 nM | 760 nM | 650 ± 360 nM | 700 ± 360 nM | 650 ± 360 nM | 580 nM | (0.7) | 1360 ± 930 nM | 140 nM | 0.64 (7.6) | 6800 nM | 1180 nM | – | 90 nM | Fold resistance ([2]; Example 6, recombinant virus encoding W88G): 9.4 fold
CCCCCCCCCCCCCCCCCCOC[C@H](COP(=O)(O)C(=O)O)OC [MB-PFA, 1-O-octadecyl-2-O-methyl-sn-glycero-3-PFA] | 350 nM | 1040 nM | 500 ± 480 nM | 500 ± 480 nM | 500 ± 480 nM | 480 nM | (1.7) | 1510 ± 450 nM | 270 nM | 4.42 (7.6) | 5880 nM | 1870 nM | 0.33 (2.2) | 70 nM | –
O=C(O)P(=O)(O)O [PFA, phosphonoformate, reference compound] | – | – | – | – | – | – | (1.7) | – | – | 14.28 (11.7) | – | – | 9.40 (2.3) | – | EC50 ([1]; Human immunodeficiency virus 1, MT2, Table 1, HIV-1LAI(control), MOI 0.01, p24, MT-2 cells, read-out: EC50): 18300 nM; EC50 ([1]; Human immunodeficiency virus 1, MT2, Table 2, HIV-1LAI(control), MOI 0.05, read-out: EC50): 20100 nM; EC50 ([1]; Human immunodeficiency virus 1, MT2, Table 3, Wild type, mean ± SD, at least three experiments, read-out: EC50): 17700 ± 10100 nM; EC50 ([1]; Human immunodeficiency virus 1, MT2, Table 4, HIV-1LAI wild type, mean ± SD, two or three experiments, read-out: EC50): 17700 ± 10100 nM; EC50 ([1]; Human immunodeficiency virus 1, MT2, Table 5, Wild type, mean ± SD, read-out: EC50): 17700 ± 10100 nM; EC50 ([1]; Human immunodeficiency virus 1, MT2, Table 6, baseline virus HIV-1LAI passage 0, read-out: EC50): 5270 nM; EC50 ([1]; Human immunodeficiency virus 1, MT2, Table 7, Wild type, mean (SD in next grid row), read-out: EC50): 13100 nM; EC50 ([3]; Human immunodeficiency virus 1, MT2, Table 1, MOI 0.01): 15700 nM; EC50 ([3]; Human immunodeficiency virus 1, MT2, Table 3, mean ± SD): 33400 ± 18700 nM; EC50 ([2]; Human immunodeficiency virus 1, MT2, Table 7, read-out: EC50): 152000 nM; Fold resistance ([2]; {}): 6.2 fold; EC50 ([5]; Human immunodeficiency virus 1, MT2): 39900 nM
